# Experiments:
# [1] = tested on: female Cynomolgus monkeys (Macaca fascicularis); experiment: 39-week intragastric study in female Cynomolgus monkeys: impact on ovarian cycle and function, microscopic status at necropsy; settings: for Ovary: Absence of corpora lutea (% of animals) / Ovary: Absence of corpora lutea (no. of animals) / Ovary: Cyst (% of animals) / Ovary: Cyst (no. of animals) / Ovary: Increase in growing follicles (% of animals) / Ovary: Increase in growing follicles (no. of animals): 8 animals, after 39 weeks, necropsy; for menstrual cycle pattern: whole treatment period
# Experimental: Three groups of eight female Cynomolgus monkeys (Macaca fascicularis) each were treated intragastrically over a period of approximately 39 weeks at daily doses of 0.2, 0.8 and 2.0 mg/kg of E2MATE using an application volume of 10 mL/kg. A fourth group (control) received an equivalent volume of the vehicle under the same experimental conditions. […] After 39 weeks of treatment, the microscopic status at necropsy was as follows:
# [2] = tested on: person with peritoneal and ovarian endometriosis; experiment: Endometriosis patient treated with STS-I, then with added progestin; format: in vivo, human
# Experimental: A nulliparous person was diagnosed with a moderate/severe peritoneal and ovarian endometriosis during a laparoscopy performed for chronic pelvic pain, dyspareunia and infertility. Despite careful debulking of the lesions during the laparoscopy, the symptoms persisted and medical treatment is indicated. A STS-I, E2MATE is administered at 1.0 mg/week.
# metastatic breast cancer = experiment: Metastatic breast cancer patient treated with STS-I with GnRH agonist maintained; format: in vivo, human; settings: daily administration
# Experimental: In a person, a metastatic breast cancer is progressing despite administration of aromatase inhibitor and a GnRH agonist. […] STX64, a STS-I from the coumate family of compound is administered on a daily basis.
# [3] = target: T1, sulfatase activity present in eutopic and ectopic endometrium (Homo sapiens, UniProt P08842); settings: in vitro; cited from earlier work
# T1 construct: abolish the sulfatase activity present in eutopic and ectopic endometrium; host or cells: eutopic and ectopic endometrium (tissue)
# T1 sequence (P08842 22-583): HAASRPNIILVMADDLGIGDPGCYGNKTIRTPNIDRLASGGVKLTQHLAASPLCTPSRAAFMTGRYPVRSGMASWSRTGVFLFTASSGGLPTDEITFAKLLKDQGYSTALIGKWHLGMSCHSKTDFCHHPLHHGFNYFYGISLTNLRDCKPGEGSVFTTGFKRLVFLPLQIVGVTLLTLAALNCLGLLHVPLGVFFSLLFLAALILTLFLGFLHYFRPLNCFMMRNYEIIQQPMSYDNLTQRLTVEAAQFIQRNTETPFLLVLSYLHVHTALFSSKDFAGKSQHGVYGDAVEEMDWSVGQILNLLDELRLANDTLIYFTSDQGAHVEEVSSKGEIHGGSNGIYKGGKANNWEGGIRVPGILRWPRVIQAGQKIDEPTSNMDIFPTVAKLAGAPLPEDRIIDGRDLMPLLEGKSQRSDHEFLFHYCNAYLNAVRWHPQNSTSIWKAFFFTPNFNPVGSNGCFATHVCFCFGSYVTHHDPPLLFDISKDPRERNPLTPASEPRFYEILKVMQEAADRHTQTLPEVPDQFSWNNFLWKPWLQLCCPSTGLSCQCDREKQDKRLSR
# [4] = E2MATE 1.0 mg/week associated with norgestrel 0.1 mg/day
structure (smiles),measurement,setting,value
"C[C@]12CC[C@@H]3c4ccc(OS(N)(=O)=O)cc4CC[C@H]3[C@@H]1CC[C@@H]2O [E2MATE, Estradiol sulfamate]",animals became amenorrheic,"[1]; 0.2 mg/kg daily, intragastric, treatment period",2/8
same,Ovary: Absence of corpora lutea (% of animals),[1]; 0.2 mg/kg dose group,(87.5%)
same,Ovary: Absence of corpora lutea (no. of animals),[1]; 0.2 mg/kg dose group,7
same,Ovary: Cyst (% of animals),[1]; 0.2 mg/kg dose group,(12.5%)
same,Ovary: Cyst (no. of animals),[1]; 0.2 mg/kg dose group,1
same,Ovary: Increase in growing follicles (% of animals),[1]; 0.2 mg/kg dose group,(50%)
same,Ovary: Increase in growing follicles (no. of animals),[1]; 0.2 mg/kg dose group,4
same,menstrual cycle pattern,"[1]; 0.8 mg/kg daily, intragastric",persistent amenorrhea in most animals
same,Ovary: Absence of corpora lutea (% of animals),[1]; 0.8 mg/kg dose group,(100%)
same,Ovary: Absence of corpora lutea (no. of animals),[1]; 0.8 mg/kg dose group,8
same,Ovary: Cyst (% of animals),[1]; 0.8 mg/kg dose group,(12.5%)
same,Ovary: Cyst (no. of animals),[1]; 0.8 mg/kg dose group,1
same,Ovary: Increase in growing follicles (% of animals),[1]; 0.8 mg/kg dose group,(12.5%)
same,Ovary: Increase in growing follicles (no. of animals),[1]; 0.8 mg/kg dose group,1
same,menstrual cycle pattern,"[1]; 2.0 mg/kg daily, intragastric",persistent amenorrhea in most animals
same,Ovary: Absence of corpora lutea (% of animals),[1]; 4.0 mg/kg dose group,(100%)
same,Ovary: Absence of corpora lutea (no. of animals),[1]; 4.0 mg/kg dose group,8
same,Ovary: Cyst (% of animals),[1]; 4.0 mg/kg dose group,(0%)
same,Ovary: Cyst (no. of animals),[1]; 4.0 mg/kg dose group,0
same,Ovary: Increase in growing follicles (% of animals),[1]; 4.0 mg/kg dose group,(50%)
same,Ovary: Increase in growing follicles (no. of animals),[1]; 4.0 mg/kg dose group,4
same,endometriosis symptoms,"[2]; 1.0 mg/week, alone",partially relieved
same,serum estradiol (E2),"[2]; 1.0 mg/week, alone",fluctuating serum E2 in the hundred of pg range
same,vaginal bleeding,"[2]; 1.0 mg/week, alone",irregular episodes of mild but painful vaginal bleeding
same,patient's symptoms,[2]; [4],further improvement
same,serum estradiol levels and bleeding episode,[2]; [4],reduction
NS(=O)(=O)Oc1ccc2c3c(c(=O)oc2c1)CCCCC3 [STX64],follicular development,metastatic breast cancer,no follicular development is recorded
same,sulfatase activity in eutopic and ectopic endometrium,[3],abolish

# Reference: US20100204146A1, “Treatment of Oestrogen Dependant Conditions in Pre-menopausal Women” (PregLem S.A., priority 2007, published 2010)
